# Read-outs that look alike come from different tables or passages of the source. Where no end group is shown, it is not given here.
# Experiments:
# fungi and bacteria = experiment: Antifungal and antibacterial activity bioassays, results in words; format: cell-based; details: for antimicrobial / antifungal activity (in words): bioassays as in Example 2
# [1] = test system: Clavibacter michiganensis; experiment: Antibacterial growth inhibition bioassay (96-well, A600); format: cell-based
# Saccharomyces cerevisiae = experiment: Antifungal growth inhibition bioassay (96-well, A600); format: cell-based
# Candida albicans = experiment: Antifungal growth inhibition bioassay (96-well, A600); format: cell-based
# Ceratocystis paradoxa = experiment: as above; format: cell-based
# Ralstonia solanacearum = format: cell-based
# Escherichia coli = experiment: Antibacterial growth inhibition bioassay (96-well, A600); format: cell-based
# Phytophthora cryptogea = experiment: Antifungal growth inhibition bioassay (96-well, A600); format: cell-based
# [2] = test system: Phytophthora parasitica nicotiana; experiment: as above; format: cell-based
# Chalara elegans = experiment: as above; format: cell-based
# [3] = test system: Pseudomonas syringae tabaci; experiment: Antibacterial growth inhibition bioassay (96-well, A600); format: cell-based
# Cercospora nicotianae = experiment: Antifungal growth inhibition bioassay (96-well, A600); format: cell-based
# Alternaria helianthi = details: Table 1, no added Ca2+
# [4] = Table 1, 1 mM Ca2+ in test medium
substance,measurement,setting,value
RQRDPQQQAEQAQKRAQRRETE [MiAMP2c pep1],"IC50 values, Ss",Sclerotinia sclerotiorum,>50 µg/mL
same,antimicrobial / antifungal activity (in words),fungi and bacteria,little or no activity
MiAMP2c: 47-amino-acid antimicrobial protein purified from Macadamia integrifolia seeds; amino acids 118 to 164 of clone 3 (SEQ ID NO: 5) (RKQQKRYEEQQREDEEKYEERMKEGDNKRDPQQREYEDCRRHCEQQE; Partial mature peptide),IC50 + Ca^2+,[1]; [4],>50 µg/mL
same,IC50 (concentration at which 50% inhibition of growth was observed),"[1]; Table 1, no added Ca2+",50 µg/mL
same,IC50 + Ca^2+,Saccharomyces cerevisiae; [4],>50 µg/mL
same,IC50 (concentration at which 50% inhibition of growth was observed),"Saccharomyces cerevisiae; Table 1, no added Ca2+",20 to 50 µg/mL
same,IC50 + Ca^2+,"Sclerotinia sclerotiorum; Table 1, Sclerotinia sclerotiorum, 1 mM Ca2+ in test medium",>50 µg/mL
same,IC50 (concentration at which 50% inhibition of growth was observed),"Sclerotinia sclerotiorum; Table 1, Sclerotinia sclerotiorum, no added Ca2+",20 to 50 µg/mL
same,"IC50 values, Ss","Sclerotinia sclerotiorum; Table 2, Sclerotinia sclerotiorum, media A without added Ca2+",20 to 50 µg/mL
same,IC50 + Ca^2+,"Verticillium dahliae; Table 1, Verticillium dahliae, 1 mM Ca2+ in test medium",>50 µg/mL
same,IC50 (concentration at which 50% inhibition of growth was observed),"Verticillium dahliae; Table 1, Verticillium dahliae, no added Ca2+",5 to 10 µg/mL
same,"IC50 values, Vd","Verticillium dahliae; Table 2, Verticillium dahliae, media A without added Ca2+",5 to 10 µg/mL
same,IC50 + Ca^2+,Candida albicans; [4],>50 µg/mL
same,IC50 (concentration at which 50% inhibition of growth was observed),"Candida albicans; Table 1, no added Ca2+",>50 µg/mL
same,effect of Ca2+ on inhibitory activity (in words),fungi and bacteria; 1 mM Ca2+ in the test medium,greatly reduced (although not eliminated)
same,IC50 + Ca^2+,Ceratocystis paradoxa; [4],>50 µg/mL
same,IC50 (concentration at which 50% inhibition of growth was observed),"Ceratocystis paradoxa; Table 1, no added Ca2+",20 to 50 µg/mL
same,"IC50 values, Cp","Ceratocystis paradoxa; Table 2, media A without added Ca2+",20 to 50 µg/mL
same,IC50 + Ca^2+,Ralstonia solanacearum; [4],>50 µg/mL
same,IC50 (concentration at which 50% inhibition of growth was observed),"Ralstonia solanacearum; Table 1, no added Ca2+",>50 µg/mL
same,IC50 + Ca^2+,Escherichia coli; [4],>50 µg/mL
same,IC50 (concentration at which 50% inhibition of growth was observed),"Escherichia coli; Table 1, no added Ca2+",>50 µg/mL
same,IC50 + Ca^2+,Phytophthora cryptogea; [4],10 to 25 µg/mL
same,IC50 (concentration at which 50% inhibition of growth was observed),"Phytophthora cryptogea; Table 1, no added Ca2+",5 to 10 µg/mL
same,IC50 + Ca^2+,[2]; [4],>50 µg/mL
same,IC50 (concentration at which 50% inhibition of growth was observed),"[2]; Table 1, no added Ca2+",10 to 20 µg/mL
same,IC50 + Ca^2+,Chalara elegans; [4],10 to 20 µg/mL
same,IC50 (concentration at which 50% inhibition of growth was observed),"Chalara elegans; Table 1, no added Ca2+",2 to 5 µg/mL
same,IC50 + Ca^2+,"Fusarium oxysporum; Table 1, Fusarium oxysporum, 1 mM Ca2+ in test medium",20 to 50 µg/mL
same,"IC50 values, Foc","Fusarium oxysporum; Table 2, Fusarium oxysporum, media A without added Ca2+",10 µg/mL
same,IC50 + Ca^2+,[3]; [4],>50 µg/mL
same,IC50 (concentration at which 50% inhibition of growth was observed),"[3]; Table 1, no added Ca2+",>50 µg/mL
same,IC50 + Ca^2+,Cercospora nicotianae; [4],5 to 10 µg/mL
same,IC50 (concentration at which 50% inhibition of growth was observed),"Cercospora nicotianae; Table 1, no added Ca2+",5 to 10 µg/mL
same,IC50 (concentration at which 50% inhibition of growth was observed),Alternaria helianthi,5 to 10 µg/mL
PRHMQIAQQRAERRAEKEKRKQQKR [MiAMP2c pep2],"IC50 values, Ss",Sclerotinia sclerotiorum,50 µg/mL
same,"IC50 values, Vd",Verticillium dahliae,10 to 20 µg/mL
same,antimicrobial / antifungal activity (in words),fungi and bacteria,inhibitory activity against a variety of fungi
same,"IC50 values, Lm",Leptosphaeria maculans,10 to 20 µg/mL
same,"IC50 values, Foc",Fusarium oxysporum,10 to 20 µg/mL

# From patent US7067624B2, “Antimicrobial proteins” (Commonwealth Scientific and Industrial Research Organisation, priority 1996, dated 2006)
